Laboratory results published in US20200171166A1, “GEL COMPOSITION AND METHOD FOR PRODUCING GEL COMPOSITION” (Shimadzu Corporation, priority 2015, published 2020).

Tested on: three-dimensional cultured corneal epithelium model from human normal corneal epithelium cells (LabCyte CORNEA-MODEL)
Assay: Irritativeness test using a cornea model (WST-8 assay)
Format: cell-based
Conditions: exposure to 50 μL of test substance
Protocol: Prepared as test substances were hydrogels made under the same conditions as in the above preparation examples 3A to 3C (prepared from methanol gel, ethanol gel, and 2-butanol gel, respectively); solution in which 611 mg of NMP was added to 500 mg of PLGA; NMP; and distilled water (negative reference). A standard protocol was followed using a three-dimensional cultured corneal epithelium model from human normal corneal epithelium cells (J-TEC, LabCyte CORNEA-MODEL), and exposure tests were carried out on 50 μL of the test substances. Using a WST-8 assay kit (Dojin Chemical, product code: CK04), following the exposure test, a WST-8 assay was done on the samples, the OD value was measured with a plate reader (TECAN, Infinite 200 Pro), and the relative survival rate (proportion of live cells) was calculated for the negative object (distilled water).

Structure (SMILES): CN1CCCC1=O [NMP, N-methyl pyrrolidone]
- irritativeness toward the cornea: strong
